Assay results published in ChEMBL document CHEMBL1201862, “PubChem BioAssay data set” (2004).
The source made the active and inactive calls.

Key:
[1] = A549 cell cytotoxicity, dose response, cytotoxicity control, plate reader, cherry-pick, antagonist series (AID 743412); format: functional, cell-based
[2] = toxicity toward HepG2 liver cells – cell-based, plate reader, cherry-pick, antagonist series, cytotoxicity control, dose response (AID 743416); format: functional
[3] = blockers of bursicon-stimulated LGR2 cAMP reporter – cell-based, HEK293, CRE-luciferase reporter, cherry pick, set 2, dose response (AID 743343); format: functional;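 further: transfected cells were stimulated with diluted bursicon conditioned medium after compound addition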
[4] = blockade of melanocortin 4 receptor signaling – cell-based, plate reader, cherry pick, counter-screen for LGR2 antagonist project, dose response (AID 743444); format: functional;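 further: transfected HEK 293 cells stimulated with alpha-MSH peptide; potency of inhibitors of the alpha-MSH evoked signal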
[5] = target: T1, Carboxy-terminal domain RNA polymerase II polypeptide A small phosphatase 1 (Homo sapiens, UniProt Q9GZU7); assay: CTDSP1 inhibitors, concentration-response, biochemical, absorbance readout, ultra-high-throughput screen actives (AID 540297); format: functional
T1 sequence (Q9GZU7 whole entry): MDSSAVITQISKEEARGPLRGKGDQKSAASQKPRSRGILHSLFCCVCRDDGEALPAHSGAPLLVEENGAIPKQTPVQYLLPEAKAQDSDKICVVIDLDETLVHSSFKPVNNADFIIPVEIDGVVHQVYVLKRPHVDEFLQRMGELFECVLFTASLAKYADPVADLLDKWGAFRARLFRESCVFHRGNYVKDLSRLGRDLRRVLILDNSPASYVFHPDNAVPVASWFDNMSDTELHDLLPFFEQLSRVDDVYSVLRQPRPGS

[6] = target: T2, Low molecular weight phosphotyrosine protein phosphatase (Homo sapiens, UniProt P24666); format: functional; settings: read-out: IC50_Mean
T2 sequence (P24666 whole entry): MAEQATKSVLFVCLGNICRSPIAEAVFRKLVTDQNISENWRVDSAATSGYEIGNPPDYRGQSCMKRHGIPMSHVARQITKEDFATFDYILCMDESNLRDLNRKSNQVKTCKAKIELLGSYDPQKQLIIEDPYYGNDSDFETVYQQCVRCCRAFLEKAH

[7] = target: T2, Low molecular weight phosphotyrosine protein phosphatase; format: functional; settings: read-out: IC50_Mean; remark: listed apart in the source
[8] = cells; format: functional, cell-based
[9] = target: T3, Nuclear receptor subfamily 0 group B member 1 (Homo sapiens, UniProt P51843); format: functional, cell-based;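 further: HEK293T cells transfected with SF-1 and DAX-1 plus StAR promoter luciferase reporter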
T3 sequence (P51843 whole entry): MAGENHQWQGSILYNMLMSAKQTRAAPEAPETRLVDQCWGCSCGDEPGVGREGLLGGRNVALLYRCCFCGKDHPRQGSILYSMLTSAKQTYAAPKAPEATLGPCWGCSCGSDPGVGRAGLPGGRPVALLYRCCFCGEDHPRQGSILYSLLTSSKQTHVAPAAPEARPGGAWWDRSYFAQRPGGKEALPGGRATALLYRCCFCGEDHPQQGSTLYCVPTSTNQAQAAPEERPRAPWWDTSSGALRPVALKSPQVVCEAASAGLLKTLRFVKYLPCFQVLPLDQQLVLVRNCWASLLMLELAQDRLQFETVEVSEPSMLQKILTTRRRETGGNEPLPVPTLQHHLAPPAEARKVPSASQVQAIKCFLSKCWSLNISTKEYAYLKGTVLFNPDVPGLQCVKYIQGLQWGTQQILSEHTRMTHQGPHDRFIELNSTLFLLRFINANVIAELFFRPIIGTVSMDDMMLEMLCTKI

[10] = Trypanosoma cruzi growth suppression in host cells – NIH3T3 host cells, beta-gal luminescence, confirmation (AID 2044); format: functional, cell-based;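 further: intracellular parasites grown in NIH/3T3 mouse fibroblasts as host cells; luminescent beta-galactosidase reporter signal from transgenic T. cruzi replicating inside host cells; inhibitors lower the luminescence signal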
[11] = NIH3T3 cell viability loss – ATP luminescence, mouse fibroblasts, counter-screen, dose response (AID 2010); format: functional, cell-based;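 further: cells exposed to compound for about 90 hours before reading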
[12] = target: DNA dC->dU-editing enzyme APOBEC-3A (Homo sapiens, UniProt P31941); assay: Dose Response confirmation of small molecule APOBEC3A DNA Deaminase Inhibitors via a fluorescence-based single-stranded DNA deaminase assay. [Related pubchem assays (depositor defined):AID493011, AID493024]; format: functional
Sequence of DNA dC->dU-editing enzyme APOBEC-3A (P31941 whole entry): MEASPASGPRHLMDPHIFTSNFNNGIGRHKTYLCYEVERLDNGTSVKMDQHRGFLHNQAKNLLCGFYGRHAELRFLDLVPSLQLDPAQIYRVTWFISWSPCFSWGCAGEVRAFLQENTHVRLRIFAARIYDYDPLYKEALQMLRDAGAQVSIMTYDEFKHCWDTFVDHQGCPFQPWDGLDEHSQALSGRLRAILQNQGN

[13] = target: DNA dC->dU-editing enzyme APOBEC-3G (Homo sapiens, UniProt Q9HC16); format: functional;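 further: Dose-response counterscreen measuring inhibition of APOBEC3G DNA deaminase activity, run while confirming APOBEC3A inhibitors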
Sequence of DNA dC->dU-editing enzyme APOBEC-3G (Q9HC16 whole entry): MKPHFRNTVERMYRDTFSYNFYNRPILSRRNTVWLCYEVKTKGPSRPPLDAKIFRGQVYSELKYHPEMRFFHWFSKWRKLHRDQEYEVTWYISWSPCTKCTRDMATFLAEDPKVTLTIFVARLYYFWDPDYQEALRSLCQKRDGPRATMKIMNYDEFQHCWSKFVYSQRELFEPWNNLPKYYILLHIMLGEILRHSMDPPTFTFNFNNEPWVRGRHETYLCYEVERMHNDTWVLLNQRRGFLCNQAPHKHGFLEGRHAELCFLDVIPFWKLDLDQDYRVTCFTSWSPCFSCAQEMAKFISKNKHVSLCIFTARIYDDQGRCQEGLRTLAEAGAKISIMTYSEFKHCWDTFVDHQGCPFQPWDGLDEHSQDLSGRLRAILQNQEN

[14] = target: Galanin receptor type 3 (Homo sapiens, UniProt O60755); assay: Fluorescence-based cell-based primary high throughput dose response assay to identify antagonists of the Galanin Receptor 3 (GalR3).; format: functional
Sequence of Galanin receptor type 3 (O60755 whole entry): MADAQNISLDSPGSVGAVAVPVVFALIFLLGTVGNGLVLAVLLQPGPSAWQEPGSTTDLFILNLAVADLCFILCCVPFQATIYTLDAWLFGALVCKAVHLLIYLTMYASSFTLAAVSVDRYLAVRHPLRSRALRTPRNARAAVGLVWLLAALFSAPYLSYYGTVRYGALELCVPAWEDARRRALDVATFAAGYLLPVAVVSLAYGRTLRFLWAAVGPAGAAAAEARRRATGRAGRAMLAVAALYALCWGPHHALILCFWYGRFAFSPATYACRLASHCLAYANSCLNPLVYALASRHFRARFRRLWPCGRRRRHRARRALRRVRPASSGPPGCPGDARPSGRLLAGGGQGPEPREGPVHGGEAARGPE

[15] = cells; format: functional, cell-based; settings: HEK-CNG
[16] = inhibitors of EBV LMP1 NF-kappaB signaling – cell-based, luciferase reporter, luminescence, dry powder, set 2, dose response (AID 624376); format: functional
[17] = general mammalian cell viability loss – activator set, cherry-pick, cytotoxicity control for miR-122 modulator project, dose response (AID 720690); format: functional, cell-based;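 further: HEK293T human cells scored for general mammalian cytotoxicity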
[18] = target: T4, Heat shock factor protein 1 (Mus musculus, UniProt P38532); assay: decrease of HSF1-responsive luciferase luminescence – cell-based, NIH3T3, dose retest, confirmation (AID 2382); format: functional;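 further: NIH3T3 fibroblasts with HSF1-driven luciferase reporter stressed by proteasome inhibitor MG132; luminescence from HSF1-driven luciferase expression after 8 hours of MG132 stress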
T4 sequence (P38532 whole entry): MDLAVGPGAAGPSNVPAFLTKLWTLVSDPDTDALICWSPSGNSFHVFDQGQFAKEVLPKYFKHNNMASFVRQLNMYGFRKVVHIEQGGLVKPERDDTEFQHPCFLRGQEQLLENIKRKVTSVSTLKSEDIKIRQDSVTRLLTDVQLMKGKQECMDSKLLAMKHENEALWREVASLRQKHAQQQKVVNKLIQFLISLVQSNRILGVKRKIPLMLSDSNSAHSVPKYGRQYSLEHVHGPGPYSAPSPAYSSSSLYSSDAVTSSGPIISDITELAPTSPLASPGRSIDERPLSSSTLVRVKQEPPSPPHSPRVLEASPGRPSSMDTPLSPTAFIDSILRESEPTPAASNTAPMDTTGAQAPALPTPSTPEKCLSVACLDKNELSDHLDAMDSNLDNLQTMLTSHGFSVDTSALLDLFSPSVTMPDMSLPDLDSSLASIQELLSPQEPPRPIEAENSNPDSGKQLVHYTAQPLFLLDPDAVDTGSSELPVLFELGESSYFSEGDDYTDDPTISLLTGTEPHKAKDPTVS

[19] = target: Nuclear receptor subfamily 5 group A member 2 (Homo sapiens, UniProt O00482); format: functional, cell-based;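 further: HEK293T cells transfected with LRH-1 and a StAR promoter luciferase reporter; potency for inhibitors that lower LRH-1 driven reporter light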
Sequence of Nuclear receptor subfamily 5 group A member 2 (O00482 whole entry): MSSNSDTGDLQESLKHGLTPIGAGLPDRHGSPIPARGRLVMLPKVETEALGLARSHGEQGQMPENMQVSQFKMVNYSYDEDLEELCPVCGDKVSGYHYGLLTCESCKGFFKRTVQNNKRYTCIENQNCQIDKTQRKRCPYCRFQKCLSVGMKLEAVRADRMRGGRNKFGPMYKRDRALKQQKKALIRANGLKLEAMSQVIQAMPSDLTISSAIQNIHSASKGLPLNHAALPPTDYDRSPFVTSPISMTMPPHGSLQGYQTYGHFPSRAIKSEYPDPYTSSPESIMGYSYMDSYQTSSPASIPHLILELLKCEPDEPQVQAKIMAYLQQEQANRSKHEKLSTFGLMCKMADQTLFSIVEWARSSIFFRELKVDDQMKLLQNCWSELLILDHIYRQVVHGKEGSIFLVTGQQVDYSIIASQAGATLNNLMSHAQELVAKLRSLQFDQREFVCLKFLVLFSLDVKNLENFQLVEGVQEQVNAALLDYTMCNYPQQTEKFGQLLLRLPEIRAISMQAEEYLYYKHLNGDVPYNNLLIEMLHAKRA

[20] = target: Steroidogenic factor 1 (Homo sapiens, UniProt Q13285); assay: Counterscreen for inverse agonists of the liver receptor homolog-1 (LRH-1; NR5A2): Luminescence-based cell-based high throughput dose response assay to identify inverse agonists of the Steroidogenic Factor 1 Nuclear Receptor (SF1; NR5A1).; format: functional
Sequence of Steroidogenic factor 1 (Q13285 whole entry): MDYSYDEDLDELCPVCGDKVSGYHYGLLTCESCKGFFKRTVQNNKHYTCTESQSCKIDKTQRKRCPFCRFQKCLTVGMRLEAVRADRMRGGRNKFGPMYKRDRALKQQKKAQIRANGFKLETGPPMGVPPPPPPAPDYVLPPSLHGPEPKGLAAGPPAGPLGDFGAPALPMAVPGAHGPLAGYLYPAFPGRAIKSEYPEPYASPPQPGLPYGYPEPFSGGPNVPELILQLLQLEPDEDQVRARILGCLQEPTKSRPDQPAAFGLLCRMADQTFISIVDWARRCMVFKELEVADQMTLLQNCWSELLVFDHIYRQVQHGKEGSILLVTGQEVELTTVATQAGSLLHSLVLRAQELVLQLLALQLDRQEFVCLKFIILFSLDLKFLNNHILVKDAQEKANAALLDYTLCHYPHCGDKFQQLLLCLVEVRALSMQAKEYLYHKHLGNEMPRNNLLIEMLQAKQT

[21] = nonselective StAR promoter luciferase inhibitors – cell-based, luminescence, luciferase reporter, counter-screen for LRH-1 inverse agonist project, dose response (AID 651969); format: functional
[22] = CTGF mRNA reduction in DLD1 cells – cell-based, DLD1 colon cancer, RT-qPCR, cherry-pick, dose response (AID 1053122); format: functional; settings: Cancer cell lines
[23] = target: Peroxisome proliferator-activated receptor gamma/Nuclear receptor coactivator 1 (Homo sapiens, UniProt P37231); assay: (§1) TR-FRET dose response biochemical High Throughput Screening assay for agonists of the steroid receptor coactivator 1 (SRC-1) recruitment by the peroxisome proliferator-activated receptor gamma (PPAR gamma): non-selective agonists. [Related pubchem assays (depositor defined):AID1300, AID1808, AID504735, AID631]; format: protein assay
Sequence of Peroxisome proliferator-activated receptor gamma/Nuclear receptor coactivator 1 (P37231 whole entry): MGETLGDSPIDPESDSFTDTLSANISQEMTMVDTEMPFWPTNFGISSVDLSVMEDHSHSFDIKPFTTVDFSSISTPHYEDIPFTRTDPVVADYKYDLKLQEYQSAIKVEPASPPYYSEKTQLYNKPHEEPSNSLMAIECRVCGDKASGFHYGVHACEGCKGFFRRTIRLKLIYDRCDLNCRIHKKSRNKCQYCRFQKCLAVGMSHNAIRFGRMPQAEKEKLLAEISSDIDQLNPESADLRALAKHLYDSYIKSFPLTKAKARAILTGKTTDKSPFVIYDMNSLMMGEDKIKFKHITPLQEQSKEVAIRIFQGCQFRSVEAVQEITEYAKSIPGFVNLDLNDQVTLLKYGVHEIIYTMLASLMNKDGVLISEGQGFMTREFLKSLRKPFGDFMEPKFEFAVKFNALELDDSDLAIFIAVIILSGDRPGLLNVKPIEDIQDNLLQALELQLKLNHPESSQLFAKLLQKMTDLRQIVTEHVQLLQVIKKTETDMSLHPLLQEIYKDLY
Sequence of Peroxisome proliferator-activated receptor gamma/Nuclear receptor coactivator 1 (Q15788 whole entry, further chain): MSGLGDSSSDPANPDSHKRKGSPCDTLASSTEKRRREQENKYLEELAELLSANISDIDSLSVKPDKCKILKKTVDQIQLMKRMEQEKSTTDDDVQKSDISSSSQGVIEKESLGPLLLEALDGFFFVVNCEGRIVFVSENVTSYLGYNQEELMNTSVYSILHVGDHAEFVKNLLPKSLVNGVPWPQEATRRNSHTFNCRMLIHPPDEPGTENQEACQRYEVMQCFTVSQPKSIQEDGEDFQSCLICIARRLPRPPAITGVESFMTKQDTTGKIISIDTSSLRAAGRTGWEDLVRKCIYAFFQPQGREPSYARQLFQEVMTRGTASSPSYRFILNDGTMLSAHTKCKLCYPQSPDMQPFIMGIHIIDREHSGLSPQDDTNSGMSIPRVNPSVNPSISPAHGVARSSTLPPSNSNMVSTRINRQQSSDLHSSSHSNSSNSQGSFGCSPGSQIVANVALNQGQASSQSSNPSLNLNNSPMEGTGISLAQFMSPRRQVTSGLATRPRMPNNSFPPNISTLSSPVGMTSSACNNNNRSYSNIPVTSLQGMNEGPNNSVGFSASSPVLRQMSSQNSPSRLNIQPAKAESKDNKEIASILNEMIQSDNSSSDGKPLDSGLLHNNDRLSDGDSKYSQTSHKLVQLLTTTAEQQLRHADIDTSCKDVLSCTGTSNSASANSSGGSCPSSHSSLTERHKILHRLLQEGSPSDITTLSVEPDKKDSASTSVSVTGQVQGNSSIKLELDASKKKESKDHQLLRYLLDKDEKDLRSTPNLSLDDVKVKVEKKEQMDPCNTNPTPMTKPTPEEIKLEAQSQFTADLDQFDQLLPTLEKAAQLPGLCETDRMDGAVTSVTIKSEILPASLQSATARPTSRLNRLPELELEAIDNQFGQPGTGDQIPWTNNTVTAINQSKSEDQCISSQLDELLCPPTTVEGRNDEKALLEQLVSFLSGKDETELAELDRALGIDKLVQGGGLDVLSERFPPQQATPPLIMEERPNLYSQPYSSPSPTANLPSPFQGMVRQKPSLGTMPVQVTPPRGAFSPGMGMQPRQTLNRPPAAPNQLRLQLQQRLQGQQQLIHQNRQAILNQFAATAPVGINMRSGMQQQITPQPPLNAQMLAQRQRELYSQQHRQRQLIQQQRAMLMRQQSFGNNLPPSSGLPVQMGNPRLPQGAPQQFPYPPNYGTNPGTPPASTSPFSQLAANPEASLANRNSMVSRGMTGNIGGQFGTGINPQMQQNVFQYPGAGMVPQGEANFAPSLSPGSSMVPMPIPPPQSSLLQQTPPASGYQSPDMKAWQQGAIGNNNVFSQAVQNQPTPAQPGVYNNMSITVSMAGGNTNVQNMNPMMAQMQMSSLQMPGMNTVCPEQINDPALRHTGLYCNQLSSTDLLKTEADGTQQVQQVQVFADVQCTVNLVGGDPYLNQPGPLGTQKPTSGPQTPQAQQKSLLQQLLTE

[24] = target: Peroxisome proliferator-activated receptor gamma/Nuclear receptor coactivator 3 (Homo sapiens, UniProt P37231); assay: as §1, with “3 (SRC-3)” for “1 (SRC-1)”, “assays: 1301 (Confirmation screen.), 1048 (Primary screen.)]” for “assays (depositor defined):AID1300, AID1808, AID504735, AID631]”; format: functional
[25] = target: Peroxisome proliferator-activated receptor gamma/Nuclear receptor coactivator 2 (Homo sapiens, UniProt P37231); assay: TR-FRET dose response biochemical High Throughput Screening assay for agonists of the steroid receptor coactivator 2 (SRC-2) recruitment by the peroxisome proliferator-activated receptor gamma (PPAR gamma): non-selective agonists. [Related pubchem assays: 1297, 1032 ]; format: functional

Compound: COc1ccc2oc(-c3ccccc3)cc(=O)c2c1 [6-METHOXYFLAVONE]
- AC50 [1]: > 52 µM (inactive)
- AC50 [2]: > 52 µM (inactive)
- AC50 [3]: 5.46 µM (active)
- AC50 [4]: 6.5 µM (active)

Compound: CCc1ccc(NC(=O)C[S+]([O-])CC(=O)Nc2ccc(N3CCOCC3)cc2)cc1 (centres undefined)
- IC50 [5]: 5.78 µM (active)
- IC50 [6]: 17.4 µM (active)
- IC50 [7]: 16.8 µM (active)

Compound: Cc1cc(C(=O)NCCc2ccc(Cl)cc2)c(C)o1
- IC50 [8]: > 67.5 µM (inactive)
- IC50 [9]: > 67.5 µM (inactive)

Compound: CC1(C)CC(N2CCCCC2)=CC(=[N+]2CCCCC2)C1
- EC50 [10]: 0.369 µM (active)
- EC50 [11]: 21.5 µM (active)
- IC50 [12]: 2.2 µM (active)
- IC50 [13]: 4.57 µM (active)
- IC50 [14]: 3.67 µM (active)
- EC50 [15]: > 29.9 µM (inactive)

Compound: COc1ccc(NC(=O)N(C)C[C@@H]2Oc3cc(C#CCC(C)C)ccc3S(=O)(=O)N([C@@H](C)CO)C[C@@H]2C)cc1
- AbsAC35 [16]: 43.42 µM
- AC50 [17]: 26.8 µM (active)

Compound: CC(/C=N/NC(=O)c1ccc(Br)cc1)=C\c1ccccc1
- IC50 [6]: 17.2 µM (active)
- IC50 [7]: 28.5 µM (inactive)

Compound: Cc1c(Cl)cccc1NC(=O)CS(=O)(=O)c1ccccc1
- EC50 [18]: > 195 µM (not active)
- IC50 [19]: 3.98 µM (active)
- IC50 [20]: 9.39 µM (active)
- IC50 [21]: 35.8 µM (inactive)

Compound: C[C@@H]1CN([C@H](C)CO)C(=O)c2ccccc2-c2ccccc2CO[C@@H]1CN(C)Cc1cccc2c1OCCCO2
- AC50 [22]: 12.3 µM (active)

Compound: Cc1ccccc1C(=O)Nc1nnc(-c2ccco2)s1
- EC50 [23]: > 79.4 µM (inactive)
- EC50 [24]: > 79.4 µM (not active)
- EC50 [25]: > 26.5 µM (not active)
- AC50 [3]: 4.84 µM (active)
- AC50 [4]: 8.18 µM (active)
